The record followed here is patent US5773027A, “Liposomes encapsulating antiviral drugs” (priority 1995, dated 1998).

For data set [1], the system named is human premonocytoid U937 cells. The data set can be described thus: Cellular uptake in U937 cells. The conditions noted are these: in words, FIGS. 1a, 1b.
Description: (§2) We have performed in vitro experiments to evaluate the accumulation of free and liposome-encapsulated anti-HIV agents in murine monocyte-macrophage RAW 264.7 cells and in human premonocytoid U937 cells. In brief, experiments were performed by incubating confluent cells in culture medium in presence of different concentrations of free and liposome-encapsulated anti-HIV agents in which a small proportion of radiolabeled drugs and lipids were added. At different incubation times, the medium was removed and cells were washed and treated with a Triton X-100 solution. Drug and lipid uptake were determined by measuring the radioactivity level with a liquid scintillation counter. The protein concentration for each sample was determined with a Pierce bicinchoninic acid protein assay (Rockford, Ill.) in microtiter plates.
In another data set the test system is HIV-1Ada-M. Nature of the data set: Antiviral efficacy in primary monocyte-derived macrophages infected with HIV-1Ada-M (p24). The class given is cell-based. Here is the method: Briefly, cells were infected with different strains of HIV with a multiplicity of infection of 1 (virus/target cell) and were treated with different concentrations of free and liposome-encapsulated drugs. Virus replication were monitored at different time intervals by measuring either the reverse transcriptase activity in cell-free supernatants or the viral p24 protein using an enzymatic test. Virus transcription was also monitored by polymerase chain reaction (PCR) analysis 24 hours after treatment using an HIV primer pair (M661/M667). The PCR evaluation was normalized with respect to the amount of human β-globin gene in cells. Cell viability was assessed using a tetrazolium-based colorimetric (MTT) assay.
Peripheral blood mononuclear cells were suspended in seeding medium in a
48 wellplate at a density of 3 × 10^6 cells/ml. Five days after
initiation of the cultures, nonadherent cells were removed by rinsing the
cultures four times with PBS. Adherent cells were first preincubated in
the presence or absence of drugcontaining medium for 2 hours prior to
inoculation with 10,000 cpm/well of the AdaM monocytotropic strain of
HIV1. Thereafter, medium was changed once every 4 to 5 days and was
replaced with medium supplemented or not with ddI. Virus replication was
monitored by measuring p24 levels using an enzymatic assay.

A short description of data set [2]: Pharmacokinetics in rats (plasma). The class given is in vivo, rat (female Sprague-Dawley). Here is the method:
(§1) In brief, free and liposome-encapsulated drugs were injected to female Sprague-Dawley rats as a single intravenous bolus dose via a catheter inserted through the jugular vein of animals. At specific time points, animals were sacrificed and blood was collected in heparinized tubes and separated by centrifugation. At the same time, selected tissues were removed, washed, weighed and homogenized. Tissues and plasma were then treated according to a commercial tissue solubilizer procedure. The determination of drug and lipid levels in all samples were monitored with radioactive tracers.
Parameters were calculated from the plasma concentrationtime curves using
a noncompartmental model.
Values are expressed as means ± SD obtained from 6 animals per group

Data set [3] concerns murine monocyte-macrophage RAW 264.7 cells. The data set can be described thus: Cellular uptake in RAW 264.7 cells. The conditions noted are these: in words, FIGS. 1a-1d.
Description: as §2
Data set [4] in a line: Tissue distribution in rats. The class given is in vivo, rat (female Sprague-Dawley). Particulars: single i.v. dose 10 mg foscarnet/kg. Here is the method:
as §1

The test system of a further data set is human CMV (AD169 strain). Nature of the data set: Anti-CMV activity: CMV p72 protein expression in MRC-5 cells. The class given is cell-based. The conditions noted are these: MRC-5 cell line, 96 hours, in words; FIG. 2g. The method, then: The anti-CMV activity of free and liposome-encapsulated foscarnet has been also evaluated in embryonic lung fibroblast cells (MRC-5 cell line). […] After a 96 hours incubation, cells were fixed and immunoperoxydase staining was performed using a monoclonal antibody directed against a 72-kDa immediate early CMV protein Labeled plaques were counted and results were expressed as percent of untreated infected control cells versus concentration of foscarnet.

[5] abbreviates: [^3 H]ddI, single i.v. dose 3 mg ddI/kg, rats.
The mark [6] stands for this setting: [^14 C]-PFA, single i.v. dose 10 mg/kg, rats, mean ± SD.

Regarding `O=c1[nH]cnc2c1ncn2[C@H]1CC[C@@H](CO)O1` [Free ddI, 2'-3'-dideoxyinosine], the “drug uptake / accumulation in cells” value in data set [1] and in data set [3] was “a higher accumulation” throughout. Moreover, the “p24 (Days post-infection)” value in the data set on HIV-1Ada-M (0.1 μM, day 7) was 0 ng/mL; in the data set on HIV-1Ada-M (0.1 μM, day 13) it was 20 ng/mL; in the data set on HIV-1Ada-M (0.1 μM, day 17), 280 ng/mL; with HIV-1Ada-M (1 μM, day 7) it was 0 ng/mL; in the data set with HIV-1Ada-M (1 μM, day 13), 0 ng/mL; with HIV-1Ada-M (1 μM, day 17) it was 0 ng/mL. Further, the “p24 (Days post-infection)” value amounted to 0 ng/mL with HIV-1Ada-M (10 μM, day 7); 0 ng/mL in the data set on HIV-1Ada-M (10 μM, day 13); 0 ng/mL with HIV-1Ada-M (10 μM, day 17). Besides, the “AUC0-∞, area under the plasma concentration-time curve” value in data set [2] (setting [5]) amounted to 5.31 nmol/mL/h. Moreover, in data set [2] (setting [5]), the “Cl, systemic clearance” value came to 39.8 mL/min/kg. For the same compound, the “Kel, elimination rate constant” value in data set [2] (setting [5]) came to 4.97 h⁻¹. For the same compound, the “MRT, mean residence time” value in data set [2] (setting [5]) came to 12 min. For the same compound, the “Vdss, steady state volume of distribution” value in data set [2] (setting [5]) was found to be 0.48 L/kg. Also, the “t1/2, elimination half-life” value in data set [2] (setting [5]) turned out to be 8.4 min.

As for `O=C(O)P(=O)(O)O` [Free foscarnet, foscarnet], the “Area under the curve, Brain” value in data set [4] (brain) is listed as 3.1 nmol foscarnet/g tissue/h. Moreover, the “Area under the curve, Eyes” value in data set [4] (eyes) was determined as 22.9 nmol foscarnet/g tissue/h. Besides, the “Area under the curve, Liver” value in data set [4] (liver) is 1.2 nmol foscarnet/g tissue/h. The “Area under the curve, Lungs” value in data set [4] (lungs) came out at 1.5 nmol foscarnet/g tissue/h. Moreover, the “Area under the curve, Lymph nodes” value in data set [4] (lymph nodes) is 20.3 nmol foscarnet/g tissue/h. Besides, the “Area under the curve, Spleen” value in data set [4] (spleen) turned out to be 0.8 nmol foscarnet/g tissue/h. Moreover, in the data set on human CMV (AD169 strain), the “inhibitory activity against CMV p72 protein expression” value is “comparable inhibitory activity”. In data set [2] (setting [6]), the “AUC0→∞, area under the plasma concentration-time curve” value was determined as 48.0 ± 9.6 nmol/mL/h; the “Cl, systemic clearance” value was 12.8 ± 2.5 mL/min/kg; the “Kel, elimination rate constant” value amounted to 0.96 ± 0.06 h⁻¹; the “MRT, mean residence time” value stood at 62.4 ± 4.2 min. For the same compound, the “t1/2, elimination half-life” value in data set [2] (setting [6]) worked out at 42.6 ± 2.4 min. Besides, in data set [2] (rat, in vivo, iv, 10 mg/kg), the “Vdss, steady state volume of distribution” value is 0.80 ± 0.14 L/kg.
